Measured values published in PubChem BioAssay (NCI).
Values joined by “and” are separate entries in the source; they are usually repeats but may differ in a detail not shown here. Equal entries are not always repeated.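 48-hour exposure; five concentrations; linearly interpolated endpoints. The concentration for 50% growth inhibition is given as GI50. TGI: total growth inhibition.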

The compounds below were run on HS 578T breast (assay: NCI anticancer screen, dose series, 48 h).

| SMILES | TGI | GI50 |
| --- | --- | --- |
| CCN(CC)CC(O)CNc1ccc(NCC2CO2)c2c1C(=O)c1ccccc1C2=O (stereo not given) | 24.1 µM |  |
| Cc1c[nH]c2c(O)cc3c(c12)[C@H](CCl)CN3C(=O)c1cc2cc(NC(=O)Nc3ccc4[nH]c(C(=O)N5C[C@@H](CCl)c6c5cc(O)c5[nH]cc(C)c65)cc4c3)ccc2[nH]1 |  | 0.0252 µM |
| Cc1cc(C)c([O-])c(CN(C)CCN(C)Cc2cc(C)cc(C)c2[O-])c1.O=C([O-])c1cccc(C(=O)[O-])n1.[Ti+4] | > 100 µM | 2.29 µM |
| COc1cc(OC)c(/C=C/S(=O)(=O)Cc2cnc(OC)c(N)c2)c(OC)c1 | > 100 µM | < 0.0202 µM |
| CCOC(=O)C(Cc1c[nH]c2ccc(N)cc12)(NC(C)=O)C(=O)OCC | > 1000 µM | > 1000 µM |
| CN1CCN(CCCN)CC1 | > 100 µM |  |
| CC(=O)Nc1ccc(C(=O)NN2C(=O)C(Cl)C2c2ccc(Cl)cc2)cc1 (stereo not given) | 41.6 µM |  |
| Nc1ccc(N(S(=O)(=O)c2ccccc2)S(=O)(=O)c2ccccc2)c(Cl)c1 | > 100 µM |  |
| CC(O)c1cccc(NCc2c3ccccc3c(=O)n3c2oc2ccccc23)c1 (stereo not given) | 57.4 µM | 4.43 µM |
| CC(=O)N[C@H]1C=C[C@@H]2/C=C(C)/C=C/[C@@H](C)[C@H]([C@H](C)[C@H](O)[C@@H](C)NC(C)=O)OC(=O)/C=C/C=C(C)\C=C\[C@]2(C)C1 | 4.65 µM and 3.28 µM | 0.0161 µM and 0.0045 µM |
| Cc1cc(I)cc(CN(C)CCCN2CCSCC2)c1O | 48.3 µM | 19.1 µM |
| Nc1c(C(=O)c2ccc(Cl)cc2)sc(Nc2ccccc2)c1-c1nc2ccccc2s1 | 26.9 µM | 2.56 µM |
| CCOC(=O)c1cc(C#N)c(=O)n(/N=C(\C)c2ccncc2)c1O | > 100 µM | > 100 µM |

Each compound was assayed on K-562 leukemia (assay: NCI anticancer screen, dose series, 48 h).

| SMILES | GI50 [µM] | TGI [µM] |
| --- | --- | --- |
| COc1cc2c(cc1OCCCOc1cc3c(cc1OC)C(=O)N1C[C@H](F)C[C@H]1C=N3)N=C[C@@H]1C[C@@H](F)CN1C2=O | 2.98 | 12.7 |
| c1ccc2c(c1)CCC/C2=N\OCC1CO1 (stereo not given) |  | > 100 |
| CC/C(C)=C1\CCC(CN2CCOCC2)C1=O (stereo not given) |  | > 100 |
| COC(=O)C1C(C(=O)OC)C2(OC)c3ccccc3-c3ccccc3C12 (stereo not given) |  | 76.9 |
| O=C1OC(CC(=O)c2ccc(Cl)c(Cl)c2)C(Cl)=C1Cl (stereo not given) |  | > 100 |
| CCN(CC)CC(O)CNc1ccc(NCC2CO2)c2c1C(=O)c1ccccc1C2=O (stereo not given) | 0.0135 |  |
| CC(=O)c1cccc(N2COC(C)(C)c3nc4ccccc4n3C2)c1 |  | > 100 |
| O=[N+]([O-])c1cccc(C2N3CCCCC3[C@@H]3c4[nH]c5ccccc5c4CCN23)c1 (stereo not given in full) |  | 19.6 |
| CCOC(=O)NC(=O)c1cn(CC(=O)NCC(=O)NCC(=O)NCCCN2CCN(CCCNC(=O)CNC(=O)CNC(=O)Cn3cc(C(=O)NC(=O)OCC)c(=O)[nH]c3=O)CC2)c(=O)[nH]c1=O |  | > 100 |
| O=S(=O)(N/N=C/c1ccc(/C=N/NS(=O)(=O)c2ccccc2)cc1)c1ccccc1 |  | 98.5 |
| CC[C@@H]1OC2(C)CC(S(=O)(=O)c3ccccc3O)CC1O2 (stereo not given in full) |  | > 100 |
| CCOC(=O)C(N)C[S][Sn]([CH3])([CH3])[Cl] (stereo not given) | 39.6 | > 100 |
| CC(=O)OCC1OC(N2C(=O)C(=O)c3cc(C)ccc32)C(OC(C)=O)C(OC(C)=O)C1OC(C)=O (stereo not given) |  | > 100 |
| O=C1c2ccccc2-c2cccc3ccc(Cc4ccc5ccccc5c4)c1c23 |  | > 100 |
| Cc1cc(C)c([O-])c(CN(C)CCN(C)Cc2cc(C)cc(C)c2[O-])c1.O=C([O-])c1cccc(C(=O)[O-])n1.[Ti+4] | 2.67 | > 100 |
| COc1cc(OC)c(/C=C/S(=O)(=O)Cc2cnc(OC)c(N)c2)c(OC)c1 | < 0.013 | > 100 |
| CCOC(=O)C(Cc1c[nH]c2ccc(N)cc12)(NC(C)=O)C(=O)OCC | > 1000 | > 1000 |
| CN1CCN(CCCN)CC1 |  | > 100 |
| COc1cc(Cl)c2c3c(c(C(C)=O)oc13)CCC2 |  | > 100 |
| CC(=O)Nc1ccc(C(=O)NN2C(=O)C(Cl)C2c2ccc(Cl)cc2)cc1 (stereo not given) |  | > 100 |
| Nc1ccc(N(S(=O)(=O)c2ccccc2)S(=O)(=O)c2ccccc2)c(Cl)c1 |  | > 100 |
| CCCCc1c2c(nc3c1CCC/C3=C\c1ccccc1)C(=O)CCC2 |  | 85.2 |
| CC(O)c1cccc(NCc2c3ccccc3c(=O)n3c2oc2ccccc23)c1 (stereo not given) | > 100 | > 100 |
